This passage reports photothermal conversion efficiency and maximum temperature results from US20240398999A1, “DC BIOMIMETIC MEMBRANE NANOPARTICLE LOADED WITH NIR-II AIE DYE, PREPARATION METHOD THEREFOR AND USE THEREOF” (SHENZHEN INSTITUTES OF ADVANCED TECHNOLOGY CHINESE ACADEMY …, priority 2023, published 2024).

The conditions of data set [1]: BPBBT solution in 5% THF at the same concentration (50 μM); stated as known; cited from earlier work.
For data set [2] the following is noted: 808 nm laser, 3 min irradiation per cycle.
Description: The nanoparticle solution filled with the BPBBT dot was fixed and irradiated by using an 808 nm laser. Meanwhile, the temperature of the solution was monitored in real time by using a thermal imaging camera. The laser was turned off after 3 min of irradiation, and the laser was turned on again when the temperature was recovered to the initial temperature. In this way, 5 cycles were repeated, and whether the highest temperature of each cycle was the same or not was observed so as to judge the stability of photothermal conversion.

“4,8-bis[4-(N, N-bis(4-octyloxyphenyl)amino)phenyl]benzo[1,2-c:4,5-c′]bis([1,2,5]thiadiazole) [BPBBT]”: the photothermal conversion efficiency in data set [1] is 22%. For the same substance, the maximum temperature entry in data set [2] is “about 48 °C”.
